# Results reported in PubChem BioAssay (NCI).
#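 Briefly, cells in 96-well plates were exposed to five compound concentrations for 48 h, and endpoints were estimated by linear interpolation. The concentration for 50% growth inhibition is given as GI50. TGI: total growth inhibition.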
# How the values were obtained:
# Experiment in all cases: DTP human tumour cell line panel, 48 h
# SF-268 CNS = system: SF-268 CNS
# TK-10 renal = system: TK-10 renal
# SNB-19 CNS = system: SNB-19 CNS
# OVCAR-4 ovarian = system: OVCAR-4 ovarian
# UACC-62 melanoma = system: UACC-62 melanoma
# ACHN renal = system: ACHN renal
# MDA-MB-435 = system: MDA-MB-435
# HS 578T breast = system: HS 578T breast
# MDA-MB-231 breast = system: MDA-MB-231 breast
# SR leukemia = system: SR leukemia
Compound,GI50 (SF-268 CNS),TGI (SF-268 CNS),GI50 (TK-10 renal),TGI (TK-10 renal),GI50 (SNB-19 CNS),TGI (SNB-19 CNS),GI50 (OVCAR-4 ovarian),TGI (OVCAR-4 ovarian),GI50 (UACC-62 melanoma),TGI (UACC-62 melanoma),GI50 (ACHN renal),TGI (ACHN renal),GI50 (MDA-MB-435),TGI (MDA-MB-435),GI50 (HS 578T breast),TGI (HS 578T breast),GI50 (MDA-MB-231 breast),TGI (MDA-MB-231 breast),TGI (SR leukemia),GI50 (SR leukemia)
C=CC(=O)N1CCN(c2ncnc3c(F)c(-c4c(O)cccc4F)c(Cl)cc23)CC1,11.5 µM,37.2 µM,16.1 µM,43.4 µM,14 µM,27.3 µM,14.9 µM,43.4 µM,9.36 µM,22.1 µM,4.84 µM,17.7 µM,10.3 µM,23.9 µM,19 µM,66.4 µM,14.3 µM,35.9 µM,,
COC(=O)/C(=N\NC(=S)NN)C(C(=O)C(=O)Nc1ccccc1C(N)=O)c1nc2ccccc2[nH]c1=O (stereo not drawn),,> 100 µM,,> 100 µM,,> 100 µM,,> 100 µM,,> 100 µM,,> 100 µM,,,,,,,> 100 µM,
CCOc1cccc2nc3cccc(C(=O)NCCN(C)C)c3nc12,,,,7.9 µM,,11.2 µM,,8.58 µM,,3.38 µM,,3.01 µM,,,,,,,26.1 µM,
COc1ccc(C(=O)C(C(=O)CCC(=O)Nc2cccc(C(F)(F)F)c2)c2ccccc2)cc1 (stereo not drawn),,> 100 µM,,> 100 µM,,> 100 µM,,> 100 µM,,> 100 µM,,> 100 µM,,,,,,,> 100 µM,
N#Cc1c(N)c(C(=O)O)nn(-c2cccc(C(F)(F)F)c2)c1=O,,> 100 µM,,> 100 µM,,> 100 µM,,,,> 100 µM,,> 100 µM,,,,,,,> 100 µM,
CC1(C)OC(=O)C=C([O-])O1.CC1(C)OC(=O)C=C([O-])O1.O=c1c(O)c(-c2ccc([O-])cc2[O-])oc2cc(O)cc(O)c12.[Ti+4],,95.5 µM,,> 100 µM,,> 100 µM,,> 100 µM,33.1 µM,> 100 µM,,> 100 µM,,,,,,,,
C=C(COC(C)=O)CC(/C=C(\C)CCC=C(C)C)OC(C)=O (stereo not drawn),,> 100 µM,,> 100 µM,,> 100 µM,,> 100 µM,,> 100 µM,,> 100 µM,,,,,,,,
O=C1N[C@@H](O)[C@@H]2ON=C(c3ccccc3)[C@H]12,,> 100 µM,,> 100 µM,,> 100 µM,,> 100 µM,,> 100 µM,,> 100 µM,,,,,,,> 100 µM,
CC/C=C\C/C=C\C1CC(=O)NCCCNCCCCN1 (stereo not drawn),,> 100 µM,,> 100 µM,,> 100 µM,,> 100 µM,,,,,,,,,,,> 100 µM,
O=C1c2ccccc2-c2c1c1ccccc1c(=O)n2CCNCCCNCCn1c2c(c3ccccc3c1=O)C(=O)c1ccccc1-2,0.156 µM,6.81 µM,,,0.389 µM,> 50 µM,,,0.362 µM,1.16 µM,0.00672 µM,0.699 µM,0.115 µM,1.1 µM,0.738 µM,2.74 µM,0.161 µM,0.548 µM,,
CN(C)C(=S)/N=c1\ss/c(=N\S(=O)(=O)c2ccccc2)n1-c1ccccc1,,> 100 µM,,> 100 µM,,,,> 100 µM,,> 100 µM,,> 100 µM,,,,,,,,
CC1(C)CCc2cc3c(cc2O1)OCCC3=O,,> 100 µM,,> 100 µM,,> 100 µM,,> 100 µM,,> 100 µM,,> 100 µM,,,,,,,> 100 µM,
COc1cc(/C=C/C(=N\NC(=O)c2ccccc2)c2sc(Nc3ccc(Cl)c(Cl)c3)nc2C)ccc1O,,> 100 µM,,> 100 µM,,> 100 µM,,> 100 µM,,26.1 µM,,87.2 µM,,,,,,,62.3 µM,
CC(C)(C)C1(O)Cc2ccccc2C(=O)O1 (stereo not drawn),,> 100 µM,,> 100 µM,,> 100 µM,,> 100 µM,,> 100 µM,,> 100 µM,,,,,,,> 100 µM,
Cc1ccc(-c2nc(C(Cl)Cl)n3nc(-c4ccccc4)cc3n2)cc1,1.06 µM,4.82 µM,,,,,0.68 µM,3.99 µM,,,0.302 µM,0.93 µM,,,1.2 µM,3.96 µM,0.21 µM,0.678 µM,,
O=C(Nc1ccc(S(=O)(=O)N[C@@H](C(=O)O)c2ccccc2)cc1)c1ccc(F)cc1,,> 100 µM,,> 100 µM,,> 100 µM,,> 100 µM,,> 100 µM,,> 100 µM,,,,,,,,
COc1ccc(C2=NC(C)(C)CO2)cc1,,> 100 µM,,> 100 µM,,> 100 µM,,> 100 µM,,> 100 µM,,> 100 µM,,,,,,,> 100 µM,
CC1=Nc2c(ccc3c2C(=O)c2ccccc2C3=O)NC(c2ccncc2)C1 (stereo not drawn),,,,> 100 µM,> 100 µM,> 100 µM,> 100 µM,> 100 µM,,> 100 µM,23.5 µM,> 100 µM,,,,,,,,> 100 µM

Compound,GI50 (SF-268 CNS),TGI (SF-268 CNS),GI50 (TK-10 renal),TGI (TK-10 renal),GI50 (SNB-19 CNS),TGI (SNB-19 CNS),GI50 (OVCAR-4 ovarian),TGI (OVCAR-4 ovarian),GI50 (UACC-62 melanoma),TGI (UACC-62 melanoma),GI50 (ACHN renal),TGI (ACHN renal),GI50 (MDA-MB-435),TGI (MDA-MB-435),GI50 (HS 578T breast),TGI (HS 578T breast),GI50 (MDA-MB-231 breast),TGI (MDA-MB-231 breast),TGI (SR leukemia),GI50 (SR leukemia)
CC(=O)OCCOCBr,,> 100 µM,,> 100 µM,,,,> 100 µM,,> 100 µM,,> 100 µM,,,,,,,,
NS(=O)(=O)c1ccc(NC(=O)c2cccc3c(=O)c4ccccc4[nH]c23)cc1,,> 100 µM,,> 100 µM,,> 100 µM,,> 100 µM,,> 100 µM,,> 100 µM,,,,,,,> 100 µM,
NC(CCSCC(F)F)C(=O)O (stereo not drawn),,> 100 µM,,> 100 µM,,> 100 µM,,> 100 µM,,> 100 µM,,> 100 µM,,,,,,,> 100 µM,
c1cc[c]([Sn]([S]c2cccc3cccnc23)([c]2ccccc2)[c]2ccccc2)cc1,0.0469 µM,0.241 µM,0.0446 µM,0.181 µM,0.256 µM,0.901 µM,0.0171 µM,0.0644 µM,0.0352 µM,0.162 µM,0.0335 µM,0.116 µM,,,,,,,,
COc1ccc(/C=C/C(=O)c2sc(-n3nc(-c4ccccc4)cc3-c3ccccc3)nc2C)cc1OC,,84.2 µM,,> 100 µM,,> 100 µM,,> 100 µM,,52.2 µM,,> 100 µM,,,,,,,78.2 µM,
CCCSc1cc(Cl)nc(N)n1,> 100 µM,> 100 µM,> 100 µM,> 100 µM,> 100 µM,> 100 µM,> 100 µM,> 100 µM,> 100 µM,> 100 µM,> 100 µM,> 100 µM,> 100 µM,> 100 µM,,,> 100 µM,> 100 µM,> 100 µM,> 100 µM
NC1=NC(=O)C(CC(=O)Nc2ccc([N+](=O)[O-])cc2[N+](=O)[O-])S1 (stereo not drawn),,> 100 µM,,> 100 µM,,> 100 µM,,> 100 µM,,> 100 µM,,> 100 µM,,,,,,,,
Clc1ccc(CNc2nc3ccccc3nc2-c2cccs2)c(Cl)c1,,> 100 µM,,> 100 µM,,> 100 µM,,,,,,> 100 µM,,,,,,,> 100 µM,
O=C1CCn2c([nH]c3cccc4cccc2c43)=N1,,> 100 µM,,> 100 µM,,> 100 µM,,> 100 µM,,> 100 µM,,> 100 µM,,,,,,,> 100 µM,
CCOC(=O)Cc1nc(/C(C#N)=C/c2ccco2)[nH]c(=O)c1C#N,,,,> 100 µM,,> 100 µM,,> 100 µM,,> 100 µM,,> 100 µM,,,,,,,> 100 µM,
COC(=O)c1c(O)ccc2[nH]c(C)c(C#N)c12,40 µM,> 100 µM,8.8 µM,49.2 µM,77.7 µM,> 100 µM,> 100 µM,> 100 µM,25.7 µM,90.4 µM,20.6 µM,> 100 µM,32.9 µM,> 100 µM,31 µM,92.2 µM,39.9 µM,> 100 µM,,
CC(O)CN1C(=O)NC(Cc2ccccc2)C1=O (stereo not drawn),,> 100 µM,,> 100 µM,,> 100 µM,,,,,,> 100 µM,,,,,,,> 100 µM,
CC1CCCC(C(=O)/C(=C/c2cccc(Cl)c2)C(=O)C(=O)O)C1 (stereo not drawn),,92.3 µM,,> 100 µM,,> 100 µM,,> 100 µM,,> 100 µM,,> 100 µM,,,,,,,,
Oc1c2c(c(O)c3ccccc13)=N[C@@H](c1ccccc1)[C@H](c1ccccc1)N=2,,> 100 µM,,> 100 µM,,> 100 µM,,> 100 µM,,> 100 µM,,> 100 µM,,,,,,,> 100 µM,
COc1cc(/C=C\c2ccc(O)cc2)cc(OC)c1OC,,4.63 µM,,> 100 µM,,> 100 µM,,> 100 µM,,> 29.1 µM,,> 100 µM,,,,,,,,
COc1ccc(-c2cc(-c3cc(Cl)ccc3Cl)nc3nc(=S)[nH]c(N)c23)cc1,57.7 µM,> 100 µM,7.35 µM,38.5 µM,58.1 µM,> 100 µM,> 100 µM,> 100 µM,6.94 µM,> 100 µM,27.1 µM,98.4 µM,3.93 µM,17.6 µM,14.6 µM,74.8 µM,3.62 µM,19.8 µM,,
CN1CCN(C)C1c1cccc(C2N(C)CCN2C)c1,,> 100 µM,,,,> 100 µM,,> 100 µM,,> 100 µM,,> 100 µM,,,,,,,,
O=c1c2ccccc2c2c3c1cccc3c1cccc3c(=O)c4ccccc4c2c31,,> 100 µM,,> 100 µM,,> 100 µM,,> 100 µM,,> 100 µM,,> 100 µM,,,,,,,> 100 µM,
